Results taken from patent US4348393A, “N-Aryl oxazolidinones, oxazolidinethiones, pyrrolidinones, pyrrolidines and thiazolidinones” (Delalande S.A., priority 1978, dated 1982).

Assays:
[1] = tested on: ptosis observed one hour after reserpine; assay: Test B: antagonism of reserpine-induced ptosis in mice; format: in vivo; settings: Mus musculus, 1 h, po, antagonism of ptosis one hour after reserpine 2 mg/kg intravenous, read-out: Test B ED 50
Protocol: Test B: Antagonism with respect to the ptosis observed one hour after an intravenous injection (2 mg/kg) of reserpine given to mice, following the protocol described by C.

[2] = tested on: generalized trembling caused by dl-5-hydroxytryptophane; assay: Test A: potentiation in mice of generalized trembling caused by dl-5-hydroxytryptophane; format: in vivo; settings: Mus musculus, po, mice, potentiation of trembling by dl-5-hydroxytryptophane 200 mg/kg interperitoneal, read-out: Test A ED 50
Protocol: Test A: Potentiation in mice of generalized trembling caused by an interperitoneal injection (200 mg/kg) of dl-5-hydroxytryptophane, following the protocol described by C. GOURET and G. RAYNAUD in J. Pharmacol. (Paris), (1974), 5, 231.

| Compound | ED50 [1] | ED50 [2] |
| --- | --- | --- |
| CC(=O)OCC1CN(c2ccc(OCc3ccccc3)cc2)C(=O)O1 (centres unmarked) [compound 23] | 12.5 mg/kg | 12 mg/kg |
| O=C(OCC1CN(c2ccc(OCC3CCCC3)cc2)C(=O)O1)C1CCCCC1 (centres unmarked) [compound 18] | 4.25 mg/kg | 4 mg/kg |
| CN(C)CC1CN(c2ccc(OCCC#N)cc2)C(=O)O1 (centres unmarked) [compound 171] | 25 mg/kg | 19.5 mg/kg |
| CCCCOc1ccc(N2CC(CN)OC2=O)cc1 (centres unmarked) [compound 170] | 16 mg/kg | 12.5 mg/kg |
| CCCCCCCCC(=O)OCC1CN(c2ccc(OCc3cccc([N+](=O)[O-])c3)cc2)C(=O)O1 (centres unmarked) [compound 42] | 2 mg/kg | 1.25 mg/kg |
| CC(C)C(=O)OCC1CN(c2ccc(OCc3ccccc3)cc2)C(=O)O1 (centres unmarked) [compound 25] | 25 mg/kg | 15 mg/kg |
| COCC1CN(c2ccc(OCc3cccc(C#N)c3)cc2)C(=O)O1 (centres unmarked) [compound 65] | 0.75 mg/kg | 0.28 mg/kg |
| CC(=O)OCC1CN(c2ccc(OCC3CCCCC3)cc2)C(=S)O1 (centres unmarked) [compound 115] | 4.8 mg/kg | 3.8 mg/kg |
| NCC1CN(c2ccc(OCC3CCCC3)cc2)C(=O)O1 (centres unmarked) [compound 76] | 6.2 mg/kg | 2.1 mg/kg |
| OCC1CN(c2ccc(OCC3CCCCC3)cc2)C(=S)O1 (centres unmarked) [compound 90] | 8 mg/kg | 3 mg/kg |
| OCC1CN(c2ccc(OCc3cccc(Cl)c3)cc2)C(=S)O1 (centres unmarked) [compound 93] | 6 mg/kg | 9 mg/kg |
| O=C(OCC1CN(c2ccc(OCc3ccccc3)cc2)C(=O)O1)c1ccccc1 (centres unmarked) [compound 29] | 50 mg/kg | 45 mg/kg |
| NCC1CN(c2ccc(OCc3ccc(F)cc3)cc2)C(=O)O1 (centres unmarked) [compound 176] | 4 mg/kg | 4 mg/kg |
| CCC(=O)OCC1CN(c2ccc(OCCC#N)cc2)C(=O)O1 (centres unmarked) [compound 4] | 3.4 mg/kg | 2.3 mg/kg |
| O=C1OC(COC2CCCCC2)CN1c1ccc(OCc2cccc([N+](=O)[O-])c2)cc1 (centres unmarked) [compound 63] | 16.5 mg/kg | 9.4 mg/kg |
| CC(C)CCOc1ccc(N2CC(CN)OC2=O)cc1 (centres unmarked) [compound 174] | 3.5 mg/kg | 3 mg/kg |
| COCC1CN(c2ccc(OCc3cc(Cl)cc(Cl)c3)cc2)C(=O)O1 (centres unmarked) [compound 166] | 3.4 mg/kg | 3.8 mg/kg |
| CC(C)C(=O)OCC1CN(c2ccc(OCc3cccc([N+](=O)[O-])c3)cc2)C(=O)O1 (centres unmarked) [compound 38] | 2 mg/kg | 1.5 mg/kg |
| OCC1CN(c2ccc(OCc3cccc(F)c3)cc2)C(=S)O1 (centres unmarked) [compound 177] | 15.5 mg/kg | 8 mg/kg |
| CCCCOc1ccc(N2CC(COC3CCCCC3)OC2=O)cc1 (centres unmarked) [compound 48] | 50 mg/kg | 50 mg/kg |
| CCCCC(=O)OCC1CN(c2ccc(OCc3ccccc3)cc2)C(=O)O1 (centres unmarked) [compound 26] | 20 mg/kg | 12.5 mg/kg |
| COCC1CN(c2ccc(OCc3cc(Cl)cc([N+](=O)[O-])c3)cc2)C(=O)O1 (centres unmarked) [compound 156] | 0.3 mg/kg | 0.47 mg/kg |
| CCCCCCCCC(=O)OCC1CN(c2ccc(OCc3ccccc3)cc2)C(=O)O1 (centres unmarked) [compound 28] | 20 mg/kg | 32 mg/kg |
| CC(=O)OCC1CN(c2ccc(OCc3cccc([N+](=O)[O-])c3)cc2)C(=O)O1 (centres unmarked) [compound 36, Para (meta-nitrobenzyloxy) phenyl-3 acetoxy-methyl-5 oxazolidinone-2] | 1.5 mg/kg | 1.7 mg/kg |

| Compound | ED50 [1] | ED50 [2] |
| --- | --- | --- |
| CC(C)CCOc1ccc(N2CC(COC(=O)C(C)(C)C)OC2=O)cc1 (centres unmarked) [compound 125] | 3.5 mg/kg | 5 mg/kg |
| COCC1CN(c2ccc(OCc3cccc(F)c3)cc2)C(=O)O1 (centres unmarked) [compound 67] | 5.6 mg/kg | 4.4 mg/kg |
| CCCCCCCCC(=O)OCC1CN(c2ccc(OCc3cccc(C#N)c3)cc2)C(=O)O1 (centres unmarked) [compound 133] | 5.2 mg/kg | 6 mg/kg |
| CCCOCC1CN(c2ccc(OCCC#N)cc2)C(=O)O1 (centres unmarked) [compound 145] | 12 mg/kg | 8.5 mg/kg |
| CCCCOc1ccc(N2CC(CO)OC2=S)cc1 (centres unmarked) [compound 89] | 12.5 mg/kg | 12.5 mg/kg |
| N#CCCOc1ccc(N2CC(COC3CCCCC3)OC2=O)cc1 (centres unmarked) [compound 54] | 12.5 mg/kg | 14 mg/kg |
| NCC1CN(c2ccc(OCc3cccc([N+](=O)[O-])c3)cc2)C(=O)O1 (centres unmarked) [compound 84] | 1.3 mg/kg | 3 mg/kg |
| OCC1CN(c2ccc(OCc3ccc(Cl)cc3)cc2)C(=S)O1 (centres unmarked) [compound 95] | 35 mg/kg | 50 mg/kg |
| CCCOCC1CN(c2ccc(OCc3ccccc3)cc2)C(=O)O1 (centres unmarked) [compound 152] | 15.5 mg/kg | 18 mg/kg |
| CC(C)C(=O)OCC1CN(c2ccc(OCC3CCCC3)cc2)C(=O)O1 (centres unmarked) [compound 15] | 2 mg/kg | 2.2 mg/kg |
| NCC1CN(c2ccc(OCc3cccc(Cl)c3)cc2)C(=O)O1 (centres unmarked) [compound 82] | 12 mg/kg | 9.6 mg/kg |
| CCCCOc1ccc(N2CC(COCCC)OC2=O)cc1 (centres unmarked) [compound 142] | 17.5 mg/kg | 18 mg/kg |
| CCCCOc1ccc(N2CC(COC(=O)C(C)(C)C)OC2=O)cc1 (centres unmarked) [compound 12] | 6 mg/kg | 4.6 mg/kg |
| CC(C)(C)C(=O)OCC1CN(c2ccc(OCc3cccc(Cl)c3)cc2)C(=O)O1 (centres unmarked) [compound 34] | 7.5 mg/kg | 7 mg/kg |
| N#Cc1cccc(COc2ccc(N3CC(CO)OC3=S)cc2)c1 (centres unmarked) [compound 97] | 3.2 mg/kg | 3.9 mg/kg |
| O=[N+]([O-])c1cc(Cl)cc(COc2ccc(N3CC(CO)OC3=S)cc2)c1 (centres unmarked) [compound 113] | 3.5 mg/kg | 3.2 mg/kg |
| CC(C)CCOCC1CN(c2ccc(OCc3cccc([N+](=O)[O-])c3)cc2)C(=O)O1 (centres unmarked) [compound 158] | 6 mg/kg | 6 mg/kg |
| CC(C)COCC1CN(c2ccc(OCc3cccc([N+](=O)[O-])c3)cc2)C(=O)O1 (centres unmarked) [compound 157] | 6.2 mg/kg | 4.7 mg/kg |
| CCOCC1CN(c2ccc(OCc3cccc(C#N)c3)cc2)C(=O)O1 (centres unmarked) [compound 167] | 3 mg/kg | 3.7 mg/kg |
| COCC1CN(c2ccc(OCc3ccc(C#N)cc3)cc2)C(=O)O1 (centres unmarked) [compound 159] | 4.8 mg/kg | 5.2 mg/kg |
| CC(C)OCC1CN(c2ccc(OCc3cccc([N+](=O)[O-])c3)cc2)C(=O)O1 (centres unmarked) [compound 62] | 2.4 mg/kg | 3.6 mg/kg |
| CC(C)OCC1CN(c2ccc(OCCC#N)cc2)C(=O)O1 (centres unmarked) [compound 53] | 5.8 mg/kg | 5 mg/kg |
| COCC1CN(c2ccc(OCC3CCCCC3)cc2)C(=O)O1 (centres unmarked) [compound 55] | 1.1 mg/kg | 0.6 mg/kg |
| CCCCCCCCC(=O)OCC1CN(c2ccc(OCC3CCCCC3)cc2)C(=O)O1 (centres unmarked) [compound 122] | 6.2 mg/kg | 6.8 mg/kg |

| Compound | ED50 [1] | ED50 [2] |
| --- | --- | --- |
| CCCCCCCCC(=O)OCC1CN(c2ccc(OCCC(C)C)cc2)C(=O)O1 (centres unmarked) [compound 126] | 1.8 mg/kg | 4.4 mg/kg |
| CCCCC(=O)OCC1CN(c2ccc(OCc3cccc([N+](=O)[O-])c3)cc2)C(=O)O1 (centres unmarked) [compound 39] | 1.6 mg/kg | 1.75 mg/kg |
| CCCCC(=O)OCC1CN(c2ccc(OCc3cccc(Cl)c3)cc2)C(=O)O1 (centres unmarked) [compound 33] | 4.5 mg/kg | 9.4 mg/kg |
| COCC1CN(c2ccc(OCc3ccc(F)c(Cl)c3)cc2)C(=O)O1 (centres unmarked) [compound 163] | 8 mg/kg | 1.15 mg/kg |
| CCOc1ccc(N2CC(CO)OC2=S)cc1 (centres unmarked) [compound 87, para ethoxyphenyl-3 hydroxymethyl-5 oxazolidine thione-2] | 44 mg/kg | 29 mg/kg |
| COCC1CN(c2ccc(OCCCCC#N)cc2)C(=O)O1 (centres unmarked) [compound 112] | 0.15 mg/kg | 0.1 mg/kg |
| CCC(=O)OCC1CN(c2ccc(OCC#N)cc2)C(=O)O1 (centres unmarked) [compound 2] | 8 mg/kg | 12.5 mg/kg |
| CCCCC(=O)OCC1CN(c2ccc(OCCC#N)cc2)C(=O)O1 (centres unmarked) [compound 6] | 6 mg/kg | 2.4 mg/kg |
| CC(C)C(=O)OCC1CN(c2ccc(OCc3cccc(Cl)c3)cc2)C(=O)O1 (centres unmarked) [compound 32] | 3.6 mg/kg | 4.7 mg/kg |
| COCC1CN(c2ccc(OCC3CCOCC3)cc2)C(=O)O1 (centres unmarked) [compound 144] | 1.1 mg/kg | 2.2 mg/kg |
| CCCCOc1ccc(N2CC(COC)OC2=O)cc1 (centres unmarked) [compound 46] | 2 mg/kg | 1.5 mg/kg |
| COCC1CN(c2ccc(OCC3CCCCCC3)cc2)C(=O)O1 (centres unmarked) [compound 150] | 0.5 mg/kg | 0.7 mg/kg |
| CCCOCC1CN(c2ccc(OCC3CCCC3)cc2)C(=O)O1 (centres unmarked) [compound 143] | 12 mg/kg | 12.5 mg/kg |
| CCOCC1CN(c2ccc(OCc3cccc(Cl)c3)cc2)C(=O)O1 (centres unmarked) [compound 155] | 3 mg/kg | 9.6 mg/kg |
| CCC(=O)OCC1CN(c2ccc(OCc3cccc([N+](=O)[O-])c3)cc2)C(=O)O1 (centres unmarked) [compound 37] | 2 mg/kg | 1.9 mg/kg |
| COCC1CN(c2ccc(OCc3cccc(C(F)(F)F)c3)cc2)C(=O)O1 (centres unmarked) [compound 66] | 6 mg/kg | 4.7 mg/kg |
| COCC1CN(c2ccc(OCC(C)=O)cc2)C(=O)O1 (centres unmarked) [compound 151] | 5 mg/kg | 5.2 mg/kg |
| COCC1CN(c2ccc(OCCCCC#N)cc2)C(=S)O1 (centres unmarked) [compound 217] | 1 mg/kg | 1 mg/kg |
| CCCOc1ccc(N2CC(CO)OC2=S)cc1 (centres unmarked) [compound 88] | 33 mg/kg | 12.5 mg/kg |
| CCCCOc1ccc(N2CC(COC(C)C)OC2=O)cc1 (centres unmarked) [compound 47, para-n-butyloxy phenyl-3 isopropyloxymethyl-5 oxazolidinone-2] | 36 mg/kg | 18 mg/kg |
| CCOCC1CN(c2ccc(OCC3CCCC3)cc2)C(=O)O1 (centres unmarked) [compound 146] | 12.5 mg/kg | 5 mg/kg |
| CCOCC1CN(c2ccc(OCc3cccc([N+](=O)[O-])c3)cc2)C(=O)O1 (centres unmarked) [compound 69] | 0.2 mg/kg | 0.5 mg/kg |
